{
  "source": "patent US20070123514A1",
  "about": "“Methods of modulating neurotrophin-mediated activity” (PainCeptor Pharma Corporation, priority 2005, published 2007)",
  "data": [
    {"test_system": "PC12 (TrkA & p75)", "assay": "125I-NGF binding displacement in PC12 cells", "set-up": "species or system rat", "conditions": "PC12 cells expressing TrkA and p75; result in words", "protocol": "(§1) The method for acquiring the PC12 data described in Table 1 is described herein in Example 1. Each experiment was done at least once with an n value of 4 for each data point. (n/a=not acquired)\n(§2) All cells were incubated at 37° C. in 5% CO2. PC12 cells were maintained in RPMI-1640 medium supplemented with 10% fetal bovine serum (FBS). A875 human melanoma cells were maintained in DMEM with 10% FBS. HEK 293 cells were stably transfected with human TrkA plasmid (see below) and maintained in DMEM with 10% FBS and G418 (600 μg/mL) for selection.\n(§3) NGF binding was evaluated using methods familiar to those who are skilled in the art. Briefly, cells expressing one or both NGF receptors (PC12: TrkA+p75; A875: p75 alone; HEK_trkA: TrkA alone) were harvested by replacing the medium with calcium-magnesium free balanced salt (Grey's) solution and incubating at 37° C. for 15 min. For NGF binding, cells were resuspended at a concentration of 2×10^6 cells/mL in HEPES-Krebs-Ringer (HKR) buffer (10 mM HEPES; 125 mM NaCl; 4.8 mM KCl; 1.3 mM CaCl2; 1.2 mM MgSO4; 1.2 mM KH2PO4; 1 mg/ml BSA; 1 mg/ml glucose; pH 7.4) and exposed to ^125I-NGF (˜0.1 nM) in the presence or absence of varying concentrations of the compound. Non-specific binding was determined for reference by incubating ^125I-NGF with an excess of non-radioactive NGF in the abence of compound. Following a two-hour incubation period at 4° C., ^125I-NGF bound to the cells was quantified in a gamma radiation counter following separation from unbound NGF by filtration or centrifugation through glycerol (10% in HKR). Inhibition of binding was calculated as a percent of the specific binding (calculated as the differential between ^125I-NGF binding in the absence and presence of an excess of non-radioactive NGF without compound). Dose-response inhibition curves were typically generated with seven concentrations of a given compound, with three replicates for each concentration. For most compounds, multiple dose-response curves were generated.\n(§4) The IC50 data shown in Table 1 were acquired using the procedure described herein using PC12 cells.", "values": [
      {"smiles": "CC(=O)Nc1cc2c3c(cc(NC(C)=O)cc3c1)C(=O)N(c1cccc(C(=O)O)c1)C2=O", "note": "[Compound 94, 3-(5,8-Bis-acetylamino-1,3-dioxo-1H,3H-benzo[de]isoquinolin-2-yl)-benzoic acid]", "blocking of NGF binding (dose-response curve)": "effectively blocks NGF binding"},
      {"smiles": "O=C(O)c1ccc(Cl)c(N2C(=O)c3cc([N+](=O)[O-])cc4cc([N+](=O)[O-])cc(c34)C2=O)c1", "note": "[Compound 7, 4-Chloro-3-(5,8-dinitro-1,3-dioxo-1H,3H-benzol[de]isoquinolin-2-yl)-benzoic acid]", "blocking of NGF binding (dose-response curve)": "effectively blocks NGF binding"},
      {"smiles": "O=C1c2cccc3cc([N+](=O)[O-])cc(c23)C(=O)N1c1ccc(S(=O)(=O)O)cc1", "note": "[Compound 71, 4-(5-Nitro-1,3-dioxo-1H,3H-benzo[de]isoquinolin-2-yl)-benzenesulfonic acid]", "blocking of NGF binding (dose-response curve)": "effectively block NGF binding"}
    ]},
    {"test_system": "PC12 (TrkA & p75)", "assay": "125I-NGF binding displacement in PC12 cells", "set-up": "species or system rat", "conditions": "PC12 cells, compound concentration 25 μM", "protocol": "as §1, §2, §3, §4", "values": [
      {"smiles": "O=C(O)c1ccc(Cl)c(N2C(=O)c3cccc4c(C(=O)c5ccccc5)ccc(c34)C2=O)c1", "note": "[Compound 98, 3-(6-Benzoyl-1,3-dioxo-1H,3H-benzo[de]isoquinolin-2-yl)-4-chloro-benzoic acid]", "PC12 (TrkA & p75) Single point (% max binding) Mean": "*** (0 > *** > 30)"},
      {"smiles": "CCOC(=O)c1cccc(N2C(=O)c3cccc4cccc2c34)c1", "note": "[Compound 105, 3-(2-Oxo-2H-benzo[cd]indol-1-yl)-benzoic acid ethyl ester]", "PC12 (TrkA & p75) Single point (% max binding) Mean": "* (* > 50)"},
      {"smiles": "CCOC(=O)c1cccc(N2C(=O)c3cccc4c([N+](=O)[O-])ccc2c34)c1", "note": "[Compound 106, 3-(6-Nitro-2-oxo-2H-benzo[cd]indol-1-yl)-benzoic acid ethyl ester]", "PC12 (TrkA & p75) Single point (% max binding) Mean": "* (* > 50)"},
      {"smiles": "O=C(O)c1cccc(N2C(=O)c3cccc4cccc2c34)c1", "note": "[Compound 107, 3-(2-Oxo-2H-benzo[cd]indol-1-yl)-benzoic acid]", "PC12 (TrkA & p75) Single point (% max binding) Mean": "** (30 > ** > 50)"},
      {"smiles": "CC(=O)Nc1ccc(C(=O)O)cc1N1C(=O)c2cccc3cc([N+](=O)[O-])cc(c23)C1=O", "note": "[Compound 110, 4-Acetylamino-3-(5-nitro-1,3-dioxo-1H,3H-benzo[de]isoquinolin-2-yl)-benzoic acid]", "PC12 (TrkA & p75) Single point (% max binding) Mean": "** (30 > ** > 50)"},
      {"smiles": "O=C(O)c1ccc(Cl)c(N2C(=O)c3cccc4c(Cl)ccc(c34)C2=O)c1", "note": "[Compound 111, 4-Chloro-3-(6-chioro-1,3-dioxo-1H,3H-benzo[de]isoquinolin-2-yl)-benzoic acid]", "PC12 (TrkA & p75) Single point (% max binding) Mean": "** (30 > ** > 50)"},
      {"smiles": "CCOC(=O)c1cc(N2C(=O)c3cccc4c([N+](=O)[O-])ccc2c34)ccc1Cl", "note": "[Compound 108, 2-Chloro-5-(6-nitro-2-oxo-2H-benzo[cd]indol-1-yl)-benzoic acid ethyl ester]", "PC12 (TrkA & p75) Single point (% max binding) Mean": "* (* > 50)"},
      {"smiles": "O=C(O)c1ccc(Cl)c(N2C(=O)c3cccc4c(C(=O)O)ccc(c34)C2=O)c1", "note": "[Compound 99, 2-(5-Carboxy-2-chloro-phenyl)-1,3-dioxo-2,3-dihydro-1H-benzo[de]isoquinoline-6-carboxylic acid]", "PC12 (TrkA & p75) Single point (% max binding) Mean": "* (* > 50)"}
    ]},
    {"test_system": "PC12 (TrkA & p75)", "assay": "125I-NGF binding displacement in PC12 cells", "set-up": "species or system rat", "conditions": "PC12 cells, compound concentration 50 μM", "protocol": "as §1, §2, §3, §4", "values": [
      {"smiles": "Nc1cc2c3c(cc(Br)cc3c1)C(=O)N(c1cc(C(=O)O)ccc1Cl)C2=O", "note": "[Compound 56, 3-(5-Amino-8-bromo-1,3-dioxo-1H,3H-benzo[de]isoquinolin-2-yl)-4-chloro-benzoic acid]", "PC12 (TrkA & p75) Single point (% max binding) Mean": "* (* > 50)"},
      {"smiles": "Nc1cc2c3c(cc(N)cc3c1)C(=O)N(c1ccc(S(=O)(=O)O)cc1)C2=O", "note": "[Compound 118, 4-(5,8-Diamino-1,3-dioxo-1H,3H-benzo[de]isoquinolin-2-yl)-benzenesulfonic acid]", "PC12 (TrkA & p75) Single point (% max binding) Mean": "** (30 > ** > 50)"},
      {"smiles": "O=C(O)c1cc(Cl)cc(N2C(=O)c3cccc4cc([N+](=O)[O-])cc(c34)C2=O)c1Cl", "note": "[Compound 51, 2,5-Dichloro-3-(5-nitro-1,3-dioxo-1H,3H-benzo[de]isoquinolin-2-yl)-benzoic acid]", "PC12 (TrkA & p75) Single point (% max binding) Mean": "* (* > 50)"},
      {"smiles": "CC(=O)Nc1cc2c3c(cc(Br)cc3c1)C(=O)N(c1cc(C(=O)O)ccc1Cl)C2=O", "note": "[Compound 57, 3-(5-Acetylamino-8-bromo-1,3-dioxo-1H,3H-benzo[de]isoquinolin-2-yl)-4-chloro-benzoic acid]", "PC12 (TrkA & p75) Single point (% max binding) Mean": "** (30 > ** > 50)"},
      {"smiles": "O=C(O)c1ccc(Cl)c(N2C(=O)c3cc(Br)cc4cc([N+](=O)[O-])cc(c34)C2=O)c1", "note": "[Compound 53, 3-(5-Bromo-8-nitro-1,3-dioxo-1H,3H-benzo[de]isoquinolin-2-yl)-4-chloro-benzoic acid]", "PC12 (TrkA & p75) Single point (% max binding) Mean": "* (* > 50)"}
    ]},
    {"test_system": "PC12 (TrkA & p75)", "assay": "125I-NGF binding displacement in PC12 cells", "set-up": "species or system rat", "conditions": "PC12 cells, concentration cell printed as '═'", "protocol": "as §1, §2, §3, §4", "values": [
      {"smiles": "CC(=O)Nc1cc2c3c(cc(NC(C)=O)cc3c1)C(=O)N(c1ccc(S(=O)(=O)O)cc1)C2=O", "note": "[Compound 119, 4-(5,8-Bis-acetylamino-1,3-dioxo-1H,3H-benzol[de]isoquinolin-2-yl)-benzenesulfonic acid]", "PC12 (TrkA & p75) Single point (% max binding) Mean": "** (30 > ** > 50)"}
    ]},
    {"test_system": "human TrkA (HEK_trkA: TrkA alone)", "assay": "125I-NGF binding displacement in HEK_trkA cells", "conditions": "result in words", "protocol": "as §2\nExpression of human TrkA in HEK cells was achieved by transfecting the cells with the TrkA expression vector using Lipofectamine (Invitrogen) reagent. HEK cells were plated in 100 mm Petri dishes at a concentration of 10^6 cells per dish. The next day, a solution of DNA diluted in 1 mL OptiMEM (Invitrogen) per dish was prepared and incubated for 15 min at room temperature. […]\nNGF binding was evaluated using methods familiar to those who are skilled in the art. […] Non-specific binding was determined for reference by incubating ^125I-NGF with an excess of non-radioactive NGF in the abence of compound. Following a two-hour incubation period at 4° C., ^125I-NGF bound to the cells was quantified in a gamma radiation counter following separation from unbound NGF by filtration or centrifugation through glycerol (10% in HKR). Inhibition of binding was calculated as a percent of the specific binding (calculated as the differential between ^125I-NGF binding in the absence and presence of an excess of non-radioactive NGF without compound). […]", "values": [
      {"smiles": "CC(=O)Nc1cc2c3c(cc(NC(C)=O)cc3c1)C(=O)N(c1cccc(C(=O)O)c1)C2=O", "note": "[Compound 94, 3-(5,8-Bis-acetylamino-1,3-dioxo-1H,3H-benzo[de]isoquinolin-2-yl)-benzoic acid]", "blocking of NGF binding to TrkA (dose-response curve)": "effectively blocks NGF binding to TrkA"}
    ]}
  ]
}
